Results: US7230033B2, “Pest control compositions and methods for their use” (United States of America as represented by the Secretary of …, priority 2000, dated 2007)

Legend:
[1] = system: adult I. scapularis ticks; assay: Treated-vial biocidal screening with 2% acetone solutions (Example 2), adult ticks, residual; format: in vivo, Ixodes scapularis; settings: treated vials sat 4 wk; arthropods added for the final 24 h
Method: (§1) Samples of the compounds listed below were obtained as described in Example 1, and screened for biocidal activities against nymphal Ixodes scapularis. In this example, 2% acetone solutions (wt/vol) of the compounds were applied to inner surfaces of 2-dram friction cap vials. Vials and caps were treated then allowed to dry for a minimum of 4 hours before placing 10 nymphs in each container. These same vials were used to challenge additional nymphs and adult I. scapularis ticks and adult Xenopsylla cheopis fleas through five weeks to observe any possible residual activity.
(§2) Numbers in parentheses refer to length of treatment in terms of hours (h) or weeks (wk). Data is presented in terms of number killed/number tested. For test periods longer than 24 hours, the treated vials were allowed to sit for the stated period after drying (72 h, 4 wk, or 5 wk) and each group of arthropods was added to the vials for the final 24 h of the test period.

[2] = system: adult Xenopsylla cheopis fleas; assay: Treated-vial biocidal screening with 2% acetone solutions (Example 2), adult fleas, residual; format: in vivo; settings: treated vials sat 5 wk; arthropods added for the final 24 h
Method: as §1, §2

[3] = system: ticks, fleas, formicids and termites; assay: Persistence of biocidal activity in vials treated with 2% solutions (Example 5); format: in vivo; settings: at 11 weeks
Method: as §1
Persistence of biocidal activity was determined for nootkatone and valencene-11,12-epoxide by using the vials as treated with the 2% solutions of Example 2. This bioassay employed groups of ticks, fleas, formicids and termites using a method similar to that described in Example 2. […] At 11 weeks, the biocidal activity began to dissipate below the 100% mortality level.

Culex p. pipiens = assay: Mosquito susceptibility, serial dilutions (Example 8); settings: in vivo
X. cheopis adults = assay: Flea bioassay, treated 2-dram vials, probit analysis; format: in vivo, Xenopsylla cheopis; settings: 24 h exposure
Ae. aegypti adults = assay: Adult mosquito bottle bioassay; format: in vivo, Aedes aegypti
Ixodes scapularis nymphs = assay: Residual activity, aged treated vials, ticks; format: in vivo
[4] = system: Xenopsylla cheopis adults; assay: Residual activity, aged treated vials, fleas; format: in vivo
Method: Briefly, groups of 10 nymphal I. scapularis and X. cheopis fleas were used in all tests (more than a total of 5,240 nymphs and 4,860 fleas were exposed to the compounds). The inner surface of 2-dram friction cap vials were treated with the compound/acetone solution, or acetone only as a control, and left to air-dry overnight (see also, Panella et al., J. Med. Entomol., 42(3):352-358, 2005. Three to 4 holes were made in the plastic cap to allow for air exchange. Nymphal ticks and adult fleas were then placed directly into the vials using forceps. Vials containing ticks or fleas were placed in desiccators for 24 h at 21° C. and 90% RH. Morbidity and mortality was recorded at 1, 2, 4, 8, and 24 h after initial exposure.

[5] = system: Ixodes scapularis nymphal ticks; assay: Tick repellency bioassay; format: in vivo; settings: listed as Nootkatone (Compound 7)
[6] = system: ticks, fleas, and mosquitoes; assay: Residual activity, general statements (Examples 9, 17); format: in vivo; settings: ticks
Aedes aegypti = assay: Mosquito susceptibility, serial dilutions (Example 8); settings: in vivo
[7] = Aedes aegypti adult mosquitoes, alone, or 1:1 with carvacrol (in parenthesis)
[8] = 1 h after compound applied to applicator
[9] = 4 h after compound applied to applicator

C=C(C)[C@@H]1CCC2=CC(=O)C[C@@H](C)[C@]2(C)C1 [Compound 7, Nootkatone]
I. scapularis adults (4 wk), number killed/number tested [1]: 5/5
X. cheopis adults (5 wk), number killed/number tested [2]: 5/5
mortality level [3]: < 100%
C. pipiens. LD50 (Culex p. pipiens): <4.5 × 10^−3
LC90 (X. cheopis adults; NE = not effective at concentrations tested): 0.019 percent concentration, wt:vol
Slope (X. cheopis adults; probit): 3.527
LC90 (Ae. aegypti adults; 24 h exposure, NE = not effective at concentrations tested): 0.0092 percent concentration, wt:vol
Slope (Ae. aegypti adults; 24 h exposure, probit): 6.22
LC50 (15 min) (Ae. aegypti adults; [7]): 0.035 % (wt:vol)
LC50 (24 h) (Ae. aegypti adults; [7]): 0.0057 % (wt:vol)
LC90 (15 min) (Ae. aegypti adults; [7]): 0.119 % (wt:vol)
LC90 (24 h) (Ae. aegypti adults; [7]): 0.0092 % (wt:vol)
LC50 (15 min) (Ae. aegypti adults; Aedes aegypti adult mosquitoes, alone, or 1:1 with carvacrol (in parenthesis), listed as compound 7): 0.035 % (wt:vol)
Slope, residual activity (Ixodes scapularis nymphs; 1 week after treatment): 1.682
Slope, residual activity (Ixodes scapularis nymphs; 2 weeks after treatment): 1.586
Slope, residual activity (Ixodes scapularis nymphs; 4 weeks after treatment): 1.609
LC50, residual activity (Ixodes scapularis nymphs; 4 weeks after treatment, NE = not effective): 0.026 percent concentration, wt:vol
Slope, residual activity ([4]; 1 week after treatment): 2.546
LC90, residual activity ([4]; 1 week after treatment, NE = not effective): 0.05 percent concentration, wt:vol
Slope, residual activity ([4]; 2 weeks after treatment): 2.033
LC50, residual activity ([4]; 4 weeks after treatment): 0.031 percent concentration, wt:vol
Slope (±SEM) ([5]; 1 h): 1.288 (±0.275)
RD50 [5, 8]: 0.186 % (wt:vol)
RD95 [5, 8]: 3.514 % (wt:vol)
Slope (±SEM) ([5]; 4 h): 1.291 (±0.277)
RD50 [5, 9]: 0.177 % (wt:vol)
RD95 [5, 9]: 3.319 % (wt:vol)
residual activity [6]: considerable biological activity through the four week time period
A. aegypti LD50 (Aedes aegypti): <4.5 × 10^−3
